Assay results taken from ChEMBL document CHEMBL1201862, “PubChem BioAssay data set” (2004).
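In this assay, cells in 96-well plates receive the compound at five concentrations for 48 hours. Endpoints are linearly interpolated between the surrounding concentrations. The concentration for 50% growth inhibition is given as GI50.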 The source made the active and inactive calls. No stated cut-off is given here; in the data, active = GI50 up to about 1.1 µM and inactive = higher.

Assays:
Test in all cases: growth of human tumour cells (NCI), 48 h
SN12C = system: SN12C
NCI/ADR-RES = system: NCI/ADR-RES
HOP-92 = system: HOP-92
Malme-3M = system: Malme-3M
HL-60 = system: HL-60
NCI-H23 = system: NCI-H23
RPMI-8226 = system: RPMI-8226
NCI-H226 = system: NCI-H226
CAKI-1 = system: CAKI-1
HT-29 = system: HT-29
UACC-62 = system: UACC-62
SK-MEL-28 = system: SK-MEL-28
MOLT-4 = system: MOLT-4
SK-MEL-2 = system: SK-MEL-2
A549 = system: A549
CCRF-CEM = system: CCRF-CEM
OVCAR-5 = system: OVCAR-5
HCT-15 = system: HCT-15
UACC-257 = system: UACC-257
OVCAR-4 = system: OVCAR-4

Question: Which results are given for Cn1c(-c2ccccc2)cc(-c2cccs2)c1-c1cccs1?
Answer: GI50 (SN12C): > 100 µM (inactive); GI50 (NCI/ADR-RES): > 100 µM (inactive); GI50 (HOP-92): > 29.2 µM (inactive); GI50 (Malme-3M): > 100 µM (inactive); GI50 (HL-60): 54.8 µM (inactive); GI50 (NCI-H23): 49.3 µM (inactive); GI50 (RPMI-8226): 73.3 µM (inactive); GI50 (NCI-H226): > 100 µM (inactive); GI50 (CAKI-1): > 100 µM (inactive); GI50 (HT-29): 51.2 µM (inactive); GI50 (UACC-62): > 100 µM (inactive); GI50 (SK-MEL-28): > 100 µM (inactive); GI50 (MOLT-4): 48.9 µM (inactive); GI50 (SK-MEL-2): > 100 µM (inactive); GI50 (A549): > 100 µM (inactive); GI50 (CCRF-CEM): 18.2 µM (inactive); GI50 (OVCAR-5): > 100 µM (inactive); GI50 (HCT-15): 46.2 µM; GI50 (UACC-257): > 35.4 µM (inactive); GI50 (OVCAR-4): > 96.4 µM (inactive)

Question: Which GI50 (SN12C) does the source give for COc1nc2ccc(Cl)c(C(O)c3ccccc3)c2nc1OC (stereo not given) here?
Answer: 19.7 µM (inactive)

Question: What about the GI50 (NCI/ADR-RES) of the same molecule?
Answer: 20.3 µM (inactive)

Question: And the GI50 (HOP-92)?
Answer: 12.9 µM (inactive)

Question: And the GI50 (Malme-3M)?
Answer: 32.9 µM (inactive)

Question: And the GI50 (HL-60)?
Answer: 19.2 µM (inactive)

Question: And the GI50 (NCI-H23)?
Answer: 17.2 µM (inactive)

Question: What about the GI50 (RPMI-8226) of the same molecule?
Answer: 14.1 µM (inactive)

Question: And the GI50 (NCI-H226)?
Answer: 16.3 µM (inactive)

Question: And the GI50 (CAKI-1)?
Answer: 12.1 µM (inactive)

Question: What about the GI50 (HT-29) of the same molecule?
Answer: 29.9 µM (inactive)

Question: And the GI50 (UACC-62)?
Answer: 17.1 µM (inactive)

Question: What about the GI50 (SK-MEL-28) of the same molecule?
Answer: 35.5 µM (inactive)

Question: And the GI50 (MOLT-4)?
Answer: 17.6 µM (inactive)

Question: And the GI50 (SK-MEL-2)?
Answer: 18.5 µM (inactive)

Question: And the GI50 (A549)?
Answer: 23.8 µM (inactive)

Question: And the GI50 (CCRF-CEM)?
Answer: 12.6 µM (inactive)

Question: What about the GI50 (OVCAR-5) of the same molecule?
Answer: 29 µM (inactive)

Question: And the GI50 (HCT-15)?
Answer: 20.6 µM

Question: What about the GI50 (UACC-257) of the same molecule?
Answer: 24.6 µM (inactive)

Question: And the GI50 (OVCAR-4)?
Answer: 26.6 µM (inactive)

Question: Which results are given for CCN1CC2(CO)CCC(OC)C34C5CC6C(OC)CC(O)(C5C6OC)C(O)(C(OC)C23)C14 (stereo not given)?
Answer: GI50 (SN12C): > 375 µM (inactive); GI50 (NCI/ADR-RES): > 375 µM (inactive); GI50 (HOP-92): 168 µM (inactive); GI50 (Malme-3M): > 375 µM (inactive); GI50 (HL-60): > 375 µM (inactive); GI50 (NCI-H23): > 375 µM (inactive); GI50 (RPMI-8226): > 375 µM (inactive); GI50 (NCI-H226): > 375 µM (inactive); GI50 (CAKI-1): > 375 µM (inactive); GI50 (HT-29): > 375 µM (inactive); GI50 (UACC-62): > 375 µM (inactive); GI50 (SK-MEL-28): > 375 µM (inactive); GI50 (MOLT-4): > 375 µM (inactive); GI50 (SK-MEL-2): > 59.4 µM (inactive); GI50 (A549): > 375 µM (inactive); GI50 (CCRF-CEM): > 375 µM (inactive); GI50 (OVCAR-5): > 177 µM (inactive); GI50 (HCT-15): > 375 µM; GI50 (UACC-257): > 375 µM (inactive); GI50 (OVCAR-4): > 375 µM (inactive)
